Measurements reported in US20240285571A1, “METHODS OF TREATING BONE INFECTIONS” (MICROBION CORPORATION, priority 2020, published 2024).
Like-named read-outs stand apart in the source and are kept apart here.

Experiments:
[1] = test system: vancomycin-intermediate Staphylococcus aureus; assay: Broth microdilution MIC (Example 6); format: cell-based
How it was run: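 CLSI broth microdilution in cation-adjusted Mueller Hinton broth, test agents 0.06-64 μg/mL from DMSO stocks, inoculum approx. 5×10^5 CFU/mL. Incubation 35° C for 16–20 hr; MIC taken as lowest concentration inhibiting visible growth.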

[2] = test system: relevant ATCC QC organisms; details: CLSI established QC range, cited from earlier work
E. faecium = assay: Broth microdilution MIC (Example 5); format: cell-based; details: VRE vanA
How it was run: (§1)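 MICs were determined by CLSI broth microdilution with serial two-fold drug dilutions in CLSI-prepared media. Inocula were set to 0.5 McFarland, diluted, and added to the plates. Bacteria were incubated at 35° C. for 16-24 hr, and endpoints were read visually per CLSI criteria.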

S. pneumoniae = assay: Broth microdilution MIC (Example 5); format: cell-based; details: Streptococcus pneumoniae
How it was run: as §1

[3] = ATCC49619, S. pneumoniae MMX 6837 (ATCC 49619), QC
[4] = S. pneumoniae MMX 880, LevR SXTR CCR EryR PenR
[5] = S. pneumoniae MMX 937, MemR SXTR CCR EryR PenR
[6] = S. pneumoniae MMX 3959, CCR EryR
[7] = S. pneumoniae MMX 5440, MemR SXTR CCR EryR PenR
[8] = S. pneumoniae MMX 5445, MemR SXTR CCR EryR PenR
[9] = S. pneumoniae MMX 8133, MemR SXTR CCR EryR PenR

CCC[C@@H]1C[C@@H](C(=O)N[C@@H]([C@H]2O[C@H](SC)[C@H](O)[C@@H](O)[C@H]2O)[C@H](C)Cl)N(C)C1 [CLI]
MIC ([1]; S. aureus isolate NRS 1 (hVISA)): >8 µg/mL
MIC ([1]; S. aureus isolate NRS 2): >8 µg/mL
MIC ([1]; S. aureus isolate NRS 3): >8 µg/mL
MIC ([1]; S. aureus isolate NRS 4): >8 µg/mL
MIC ([1]; S. aureus isolate NRS 13): 0.06 µg/mL
MIC ([1]; S. aureus isolate NRS 18): >8 µg/mL
MIC ([1]; S. aureus isolate NRS 22): >8 µg/mL
MIC ([1]; S. aureus isolate NRS 24 (hVISA)): >8 µg/mL
MIC ([1]; S. aureus isolate NRS 27): >8 µg/mL
MIC QC range (in parentheses) ([2]; S. aureus ATCC 29213): (0.06-0.25) μg/mL

C[C@@H](O)[C@H]1C(=O)N2C(C(=O)O)=C(S[C@@H]3CN[C@H](C(=O)N(C)C)C3)[C@H](C)[C@H]12 [Meropenem]
MIC (E. faecium; E. faecium MMX 485): >64 µg/mL
MIC QC range (in parentheses) ([2]; E. coli ATCC 25922): (0.008-0.06) μg/mL
MIC QC range (in parentheses) ([2]; E. coli ATCC 35218): (0.008-0.06) μg/mL
MIC QC range (in parentheses) ([2]; K. pneumoniae ATCC BAA-1705): (8-64) μg/mL
MIC QC range (in parentheses) ([2]; P. aeruginosa ATCC 27853): (0.12-1) μg/mL

OCC(S)CS.[Bi] (stereo not shown) [MB-2B, bismuth-2,3-dimercaptopropanol]
MIC (E. faecium; Enterococcus faecium, VRE, E. faecium MMX 485): 2 µg/mL
MIC (E. faecium; Enterococcus faecium, VRE, E. faecium MMX 752): 4 µg/mL
MIC (S. pneumoniae; [3]): 8 µg/mL
MIC (S. pneumoniae; [4]): 8 µg/mL
MIC (S. pneumoniae; [5]): 1 µg/mL
MIC (S. pneumoniae; [6]): 8 µg/mL
MIC (S. pneumoniae; [7]): 8 µg/mL
MIC (S. pneumoniae; [8]): 8 µg/mL
MIC (S. pneumoniae; [9]): 8 µg/mL
MIC (S. pneumoniae; read-out: MIC values across isolates, pneumococci (Table 6)): 1 to 8 µg/mL
MIC ([1]; Staphylococcus aureus, NRS1): 1 µg/mL
MIC ([1]; Staphylococcus aureus, NRS2): 0.5 µg/mL
MIC ([1]; Staphylococcus aureus, NRS3): 2 µg/mL
MIC ([1]; Staphylococcus aureus, NRS4): 1 µg/mL
MIC ([1]; Staphylococcus aureus, NRS13): 1 µg/mL
MIC ([1]; Staphylococcus aureus, NRS18): 1 µg/mL
MIC ([1]; Staphylococcus aureus, NRS22): 2 µg/mL
MIC ([1]; Staphylococcus aureus, NRS24): 1 µg/mL
MIC ([1]; Staphylococcus aureus, NRS27): 1 µg/mL

CC(C)(O/N=C(\C(=O)N[C@@H]1C(=O)N2C(C(=O)[O-])=C(C[n+]3ccccc3)CS[C@H]12)c1csc(N)n1)C(=O)O [Ceftazidime]
MIC (E. faecium; E. faecium MMX 485): >32 µg/mL
MIC QC range (in parentheses) ([2]; E. coli ATCC 25922): (0.06-0.5) μg/mL
MIC QC range (in parentheses) ([2]; P. aeruginosa ATCC 27853): (1-4) μg/mL

NCC[C@H](O)C(=O)N[C@@H]1C[C@H](N)[C@@H](O[C@H]2O[C@H](CN)[C@@H](O)[C@H](O)[C@H]2O)[C@H](O)[C@H]1O[C@H]1O[C@H](CO)[C@@H](O)[C@H](N)[C@H]1O [Amikacin]
MIC QC range (in parentheses) ([2]; P. aeruginosa ATCC 27853): (1-4) μg/mL

CC(S)C(C)S.[Bi] (stereo not shown) [MB-6, bismuth-2,3-butanedithiol]
MIC (S. pneumoniae; [3]): 0.5 µg/mL
MIC (S. pneumoniae; [4]): 0.5 µg/mL
MIC (S. pneumoniae; [5]): 8 µg/mL
MIC (S. pneumoniae; [6]): 1 µg/mL
MIC (S. pneumoniae; [7]): 0.5 µg/mL
MIC (S. pneumoniae; [8]): 0.5 µg/mL
MIC (S. pneumoniae; [9]): 0.5 µg/mL
MIC ([1]; Staphylococcus aureus, NRS1): 0.12 µg/mL
MIC ([1]; Staphylococcus aureus, NRS2): ≤ 0.06 µg/mL
MIC ([1]; Staphylococcus aureus, NRS24): 1 µg/mL

C[C@H]1COc2c(N3CCN(C)CC3)c(F)cc3c(=O)c(C(=O)O)cn1c23 [Levofloxacin]
MIC (E. faecium; E. faecium MMX 485): >64 µg/mL
MIC ([1]; Staphylococcus aureus, NRS1, S. aureus isolate NRS 1 (hVISA), read-out: MIC): 4 µg/mL
MIC ([1]; Staphylococcus aureus, NRS2, S. aureus isolate NRS 2, read-out: MIC): 4 µg/mL
MIC ([1]; Staphylococcus aureus, NRS3, S. aureus isolate NRS 3, read-out: MIC): > 8 µg/mL
MIC ([1]; Staphylococcus aureus, NRS4, S. aureus isolate NRS 4, read-out: MIC): 4 µg/mL
MIC ([1]; Staphylococcus aureus, NRS13, S. aureus isolate NRS 13, read-out: MIC): 0.12 µg/mL
MIC ([1]; Staphylococcus aureus, NRS18, S. aureus isolate NRS 18, read-out: MIC): 4 µg/mL
MIC ([1]; Staphylococcus aureus, NRS22, S. aureus isolate NRS 22, read-out: MIC): 8 µg/mL
MIC ([1]; Staphylococcus aureus, NRS24, S. aureus isolate NRS 24 (hVISA), read-out: MIC): > 8 µg/mL
MIC ([1]; Staphylococcus aureus, NRS27, S. aureus isolate NRS 27, read-out: MIC): 8 µg/mL
